For 14 compounds, TGI and GI50 results are on record in PubChem BioAssay (NCI).

Common to all, as to test: NCI anticancer screen, dose series, 48 h
Assay [1] relates to OVCAR-8 ovarian.
Assay [2] concerns ACHN renal.
The test system of assay [3] is PC-3 prostate.
Assay [4] deals with UO-31 renal.
For assay [5], the system named is NCI-H23 lung.
Assay [6] relates to SK-MEL-5 melanoma.
The subject of assay [7] is A498 renal.
In assay [8] the test system is SK-MEL-2 melanoma.
In assay [9] the test system is EKVX NSCLC.

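Five compound concentrations were applied to cells in 96-well plates for 48 hours; endpoints were derived by simple linear interpolation of the resulting dose-response curve. GI50 marks 50% less growth. TGI marks complete inhibition of growth.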

Regarding `Cc1cc(NS(=O)(=O)c2ccc(NC(=O)c3ccc4nc5ccccc5c(Nc5ccc(S(=O)(=O)N=C(N)N)cc5)c4c3)cc2)no1`, the TGI in assay [1] came out at 32.9 µM; in [2], 26.4 µM; in assay [3], 39.3 µM; in assay [4], 32.1 µM; in assay [5] it was 38.6 µM; in assay [6] it was 30.5 µM. For the same compound, the TGI turned out to be 33.7 µM in [7], 33.4 µM in assay [8] and 30 µM in assay [9].

Turning to `CC1(C)C2CCC1(CS(=O)(=O)Nc1ccccc1)C(=O)C2` (centres undefined), the TGI in [1], in assay [2], in assay [3], in assay [4], in [5] and in [6] was over 100 µM each time. In addition, the TGI in [7], in [8] and in assay [9] was over 100 µM each time.

With `CN(C(=O)C12C3C4(C(=O)O)C1(C(=O)N(C)C(C)(C)C)C1C2(C(=O)O)C3(C(=O)N(C)C(C)(C)C)C14C(=O)N(C)C(C)(C)C)C(C)(C)C` (centres undefined), the TGI in assay [1], in [2], in assay [3], in assay [4], in assay [5] and in assay [6] was over 100 µM in each case. Also, the TGI in assay [7], in assay [8] and in assay [9] was over 100 µM each time.

With `CCN1CCN(C(=O)[C@]23CC[C@@H](C)[C@H](C)[C@@H]2C2=CC[C@@H]4[C@@]5(C)C/C(=C/c6cccnc6)C(=O)C(C)(C)[C@@H]5CC[C@@]4(C)[C@]2(C)CC3)CC1`, the GI50 was 2.32 µM in [1]; 2.46 µM in assay [2]; 1.49 µM in assay [3]; 1.36 µM in [4]; 2.13 µM in [5]; 1.75 µM in assay [6]. Besides, the GI50 in [7] was 1.9 µM; in assay [8] it was 2.12 µM; in [9], 2.17 µM. The TGI in assay [1] was 6.29 µM; in assay [2], 6.45 µM; in [3], 3.85 µM; in [4], 2.65 µM; in assay [5] it was 5.91 µM; in assay [6], 3.14 µM. Also, the TGI in [7] was 4.05 µM; in assay [8], 4.76 µM; in assay [9], 7.32 µM.

For the compound `CN(C)CCCn1c(Cc2ccccc2)nc2cc(C(F)(F)F)ccc21`, the TGI is over 100 µM in assay [1]; over 100 µM in assay [2]; over 100 µM in [3]; 5.32 µM in [4]; 83.2 µM in [5]; 33.2 µM in assay [6]. Further, the TGI in assay [7] is 34.6 µM; in assay [8] it was 33 µM; in assay [9], 67.6 µM.

For `C[C@]12CC[C@H]3[C@@H](CCC4=CC(=O)C=C[C@@]43O)[C@@H]1CCC2=O`, the TGI in [1], in [2], in [3], in assay [4], in assay [5] and in assay [6] was over 100 µM each time. In addition, the TGI in assay [7], in assay [8] and in assay [9] was over 100 µM throughout.

With `O=C1Cc2c(-c3ccc(Cl)cc3)cc(-c3ccccc3)nc2-c2ccccc2N1`, the TGI in assay [1] is 11.6 µM; in assay [2], 28.3 µM; in [3], over 100 µM; in assay [4], 14.8 µM; in assay [5], 33.8 µM; in [6] it was 21 µM. For the same compound, the TGI in [7] was 6.67 µM; in [8] it was 97.7 µM; in [9] it was over 56.8 µM.

Regarding `O=C(O)CC(NC(=O)Nc1ccc([N+](=O)[O-])cc1)C(=O)Nc1ccc([N+](=O)[O-])cc1` (centres undefined), the TGI in [1], in assay [2], in [3], in assay [4], in [5] and in assay [6] was over 100 µM in each case. Further, the TGI in [7], in assay [8] and in assay [9] was over 100 µM each time.

For the compound `COC(c1ccsc1)C(C#N)(C#N)N=Cc1ccsc1` (centres undefined), the TGI in [1] was determined as 49.9 µM; in [2], 54.6 µM; in assay [3] it was 27.5 µM; in assay [4] it was 26.2 µM; in [5], 26.2 µM; in assay [6], 27.7 µM. Besides, the TGI in [7] came to 29.1 µM; in [8] it was 35.6 µM; in [9], 32.9 µM.

In the case of `COc1cc(C2c3cc4c(cc3C(O)C3CCC(=O)N23)OCO4)cc(OC)c1OC` (centres undefined), the TGI in assay [1] is over 100 µM; in assay [2], over 100 µM; in [3], over 100 µM; in [4] it was 71.2 µM; in assay [5], over 100 µM; in assay [6] it was over 100 µM. The TGI in [7], in [8] and in assay [9] was over 100 µM in each case.

Take `O=S(=O)(c1ccccc1)n1c(C(O)c2ccncc2)cc2ccccc21` (centres undefined): the TGI is over 100 µM in assay [1]; over 100 µM in assay [2]; over 100 µM in [3]; 44.7 µM in assay [4]; over 100 µM in assay [5]; 35.4 µM in assay [6]. Further, the TGI in assay [7], in assay [8] and in [9] was over 100 µM in each case.

Regarding `CC1(C)CCC[C@]2(C)[C@@H]1CC[C@@]13O[C@@H]1C1=C(CO)C(=O)O[C@]14O[C@@H]4[C@@H]23`, the TGI in assay [1] is 26.7 µM; in assay [2] it was 30.2 µM; in [3] it was 25.5 µM; in [4] it was 18.7 µM; in assay [5] it was 28.4 µM; in assay [6], 31.7 µM. The TGI in assay [7] worked out at 32.9 µM; in [8], 31.6 µM; in assay [9], 24.9 µM.

For `COc1cc2c(cc1OCCCC(=O)Nc1cc(C(=O)Nc3cc(C(=O)Nc4cc(C(=O)NCCCN(C)C)n(C)c4)n(C)c3)n(C)c1)N=C[C@@H]1CCCN1C2=O`, the TGI turned out to be 3.21 µM in assay [1]; 2.99 µM in assay [2]; 6 µM in assay [3]; 3.06 µM in assay [4]; 4.4 µM in assay [5]; 6.65 µM in assay [6]. For the same compound, the values for the TGI in [7], in [8] and in [9] were 26.4 µM, 6.79 µM and 7.57 µM, respectively.

On to `CCNc1nc(N)c(C(=O)c2ccc(Cl)cc2)s1`, for which the TGI was over 100 µM in [2]; over 100 µM in assay [3]; 40.2 µM in assay [4]; over 100 µM in assay [5]; over 100 µM in [6]; 70.3 µM in assay [7]. The values for the TGI in assay [8] and in assay [9] were over 100 µM and 45.5 µM, respectively.
